In patent US6737383B1, “Herbicidal oxadiazolidines” (priority 1999, dated 2004):

Legend:
blackgrass = test: Test B pre/postemergence blackgrass; type: in vivo, Alopecurus myosuroides
Procedure, shortened: (§1)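 Test chemicals in a non-phytotoxic solvent mixture with surfactant were sprayed preemergence onto planted seeds and postemergence onto plants 2 to 18 cm tall (1- to 4-leaf stage). After twelve to sixteen days in a greenhouse, injury was visually rated against untreated controls from 0 (no effect) to 10 (complete control).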

surinam grass = test: Test B pre/postemergence surinam grass; type: in vivo, Brachiaria decumbens
Procedure, shortened: as §1

cocklebur = test: Test B pre/postemergence cocklebur; type: in vivo, Xanthium strumarium
Procedure, shortened: as §1

corn = test: Test B pre/postemergence corn; type: in vivo, Zea mays
Procedure, shortened: as §1

crabgrass = test: Test B pre/postemergence crabgrass; type: in vivo, Digitaria sanguinalis
Procedure, shortened: as §1

giant foxtail = test: Test B pre/postemergence giant foxtail; type: in vivo, Setaria faberii
Procedure, shortened: as §1

morningglory = test: Test B pre/postemergence morningglory; type: in vivo, Ipomoea hederacea
Procedure, shortened: as §1

pigweed = test: Test B pre/postemergence pigweed; type: in vivo, Amaranthus retroflexus
Procedure, shortened: as §1

rape = test: Test B pre/postemergence rape; type: in vivo, Brassica napus
Procedure, shortened: as §1

sugar beet = test: Test B pre/postemergence sugar beet; type: in vivo, Beta vulgaris
Procedure, shortened: as §1

velvetleaf = test: Test B pre/postemergence velvetleaf; type: in vivo, Abutilon theophrasti
Procedure, shortened: as §1

wheat = test: Test B pre/postemergence wheat; type: in vivo, Triticum aestivum
Procedure, shortened: as §1

purple nutsedge = test: Test B pre/postemergence purple nutsedge; type: in vivo, Cyperus rotundus
Procedure, shortened: as §1

rice = test: Test B flood test rice; type: in vivo, Oryza sativa
Procedure, shortened: (§2)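 Read-out is a visual response score from 0 (no effect) to 10 (complete control), assigned by comparison with untreated controls. Treatment was applied at the 2-leaf stage, and plants stayed in the greenhouse for twelve to sixteen days before scoring.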

smallflower flatsedge = test: Test B flood test smallflower flatsedge; type: in vivo, Cyperus difformis
Procedure, shortened: as §2

duck salad = test: Test B flood test duck salad; type: in vivo, Heteranthera limosa
Procedure, shortened: as §2

[1] = Postemergence, Rate 31 g/ha, visual rating, scale 0 to 10 (0 no effect, 10 complete control)
[2] = Preemergence, Rate 31 g/ha, visual rating, scale 0 to 10 (0 no effect, 10 complete control)
[3] = Preemergence, Rate 62 g/ha, scale of 0 to 10 where 0 is no effect and 10 is complete control
[4] = Preemergence, Rate 250 g/ha, scale of 0 to 10 where 0 is no effect and 10 is complete control
[5] = Rate 62 g/ha, Postemergence, scale 0 to 10 (0 no effect, 10 complete control)
[6] = Rate 125 g/ha, Postemergence, scale of 0 to 10 where 0 is no effect and 10 is complete control
[7] = Rate 125 g/ha, Preemergence, scale of 0 to 10 where 0 is no effect and 10 is complete control
[8] = Rate 250 g/ha, Postemergence, scale of 0 to 10 where 0 is no effect and 10 is complete control
[9] = Rate 31 g/ha, Pre-emergence section (flood test species), scale 0 to 10
[10] = Rate 62 g/ha, headed Pre-emergence (flood test species), scale 0 to 10 (0 no effect, 10 complete control)
[11] = Rate 125 g/ha, Pre-emergence, flood test species, scale 0 to 10 where 0 is no effect and 10 is complete control
[12] = Rate 250 g/ha, Pre-emergence, flood-test species, scale 0 to 10, 0 is no effect, 10 is complete control

CC(C)N(C(=O)n1oc(=O)n(CCCCF)c1=O)c1ccc(F)cc1 [Compound 289]
6: Blackgrass plant response rating (blackgrass; [2]) | Morningglory plant response rating (morningglory; [6]) | Redroot pigweed plant response rating (pigweed; [7]) | Sugarbeets plant response rating (sugar beet; [7]) | Velvetleaf plant response rating (velvetleaf; [7])
8: Blackgrass plant response rating (blackgrass; [3]) | B. signalgrass plant response rating (surinam grass; [4]) | Plant response rating, Morningglory (morningglory; [8]) | Redroot pigweed plant response rating (pigweed; [4]) | Rape plant response rating (rape; [7]) | Sugarbeets plant response rating (sugar beet; [4])
1: Cocklebur plant response rating (cocklebur; [6]) | Crabgrass plant response rating (crabgrass; [2]) | Rice plant response rating (rice; [12])
10: Giant foxtail plant response rating (giant foxtail; [3]) | Giant foxtail plant response rating (giant foxtail; [4]) | Giant foxtail plant response rating (giant foxtail; [7]) | Rape plant response rating (rape; [4])
4: Crabgrass plant response rating (crabgrass; [4])
2: Blackgrass plant response rating (blackgrass; [1]) | B. signalgrass plant response rating (surinam grass; [2]) | Plant response rating, Cocklebur (cocklebur; [8]) | Corn plant response rating (corn; [4]) | Crabgrass plant response rating (crabgrass; [3]) | Giant foxtail plant response rating (giant foxtail; [1]) | Giant foxtail plant response rating (giant foxtail; [5]) | Morningglory plant response rating (morningglory; [1]) | Rape plant response rating (rape; [6]) | Plant response rating, Rape (rape; [8]) | Sugarbeets plant response rating (sugar beet; [3]) | Wheat plant response rating (wheat; [4]) | Wheat plant response rating (wheat; [5]) | Wheat plant response rating (wheat; [7])
7: B. signalgrass plant response rating (surinam grass; [3]) | B. signalgrass plant response rating (surinam grass; [7]) | Plant response rating, Giant foxtail (giant foxtail; [8]) | Plant response rating, Redroot pigweed (pigweed; [8]) | Velvetleaf plant response rating (velvetleaf; [4]) | Plant response rating, Wheat (wheat; [8])
3: B. signalgrass plant response rating (surinam grass; [6]) | Plant response rating, B. signalgrass (surinam grass; [8]) | Crabgrass plant response rating (crabgrass; [5]) | Crabgrass plant response rating (crabgrass; [7]) | Morningglory plant response rating (morningglory; [5]) | Velvetleaf plant response rating (velvetleaf; [3]) | Plant response rating, Velvetleaf (velvetleaf; [8])
9: Blackgrass plant response rating (blackgrass; [4]) | Blackgrass plant response rating (blackgrass; [6]) | Blackgrass plant response rating (blackgrass; [7]) | Plant response rating, Blackgrass (blackgrass; [8]) | Plant response rating, Crabgrass (crabgrass; [8]) | Giant foxtail plant response rating (giant foxtail; [2])
0: B. signalgrass plant response rating (surinam grass; [1]) | B. signalgrass plant response rating (surinam grass; [5]) | Cocklebur plant response rating (cocklebur; [1]) | Cocklebur plant response rating (cocklebur; [2]) | Cocklebur plant response rating (cocklebur; [3]) | Cocklebur plant response rating (cocklebur; [4]) | Cocklebur plant response rating (cocklebur; [5]) | Cocklebur plant response rating (cocklebur; [7]) | Corn plant response rating (corn; [1]) | Corn plant response rating (corn; [2]) | Corn plant response rating (corn; [3]) | Corn plant response rating (corn; [5]) | Corn plant response rating (corn; [6]) | Corn plant response rating (corn; [7]) | Plant response rating, Corn (corn; [8]) | Crabgrass plant response rating (crabgrass; [1]) | Morningglory plant response rating (morningglory; [2]) | Morningglory plant response rating (morningglory; [3]) | Morningglory plant response rating (morningglory; [4]) | Morningglory plant response rating (morningglory; [7]) | Redroot pigweed plant response rating (pigweed; [1]) | Redroot pigweed plant response rating (pigweed; [5]) | Rape plant response rating (rape; [1]) | Rape plant response rating (rape; [2]) | Rape plant response rating (rape; [3]) | Rape plant response rating (rape; [5]) | Sugarbeets plant response rating (sugar beet; [1]) | Sugarbeets plant response rating (sugar beet; [2]) | Sugarbeets plant response rating (sugar beet; [5]) | Sugarbeets plant response rating (sugar beet; [6]) | Plant response rating, Sugarbeets (sugar beet; [8]) | Velvetleaf plant response rating (velvetleaf; [1]) | Velvetleaf plant response rating (velvetleaf; [2]) | Velvetleaf plant response rating (velvetleaf; [5]) | Velvetleaf plant response rating (velvetleaf; [6]) | Wheat plant response rating (wheat; [1]) | Wheat plant response rating (wheat; [2]) | Wheat plant response rating (wheat; [3]) | Nutsedge plant response rating (purple nutsedge; [1]) | Nutsedge plant response rating (purple nutsedge; [2]) | Nutsedge plant response rating (purple nutsedge; [3]) | Nutsedge plant response rating (purple nutsedge; [4]) | Nutsedge plant response rating (purple nutsedge; [5]) | Nutsedge plant response rating (purple nutsedge; [6]) | Nutsedge plant response rating (purple nutsedge; [7]) | Plant response rating, Nutsedge (purple nutsedge; [8]) | Rice plant response rating (rice; [9]) | Rice plant response rating (rice; [10]) | Rice plant response rating (rice; [11]) | S. Flatsedge plant response rating (smallflower flatsedge; [9]) | S. Flatsedge plant response rating (smallflower flatsedge; [10]) | S. Flatsedge plant response rating (smallflower flatsedge; [11]) | S. Flatsedge plant response rating (smallflower flatsedge; [12]) | Ducksalad plant response rating (duck salad; [9]) | Ducksalad plant response rating (duck salad; [10]) | Ducksalad plant response rating (duck salad; [11]) | Ducksalad plant response rating (duck salad; [12])
5: Blackgrass plant response rating (blackgrass; [5]) | Crabgrass plant response rating (crabgrass; [6]) | Giant foxtail plant response rating (giant foxtail; [6]) | Redroot pigweed plant response rating (pigweed; [2]) | Redroot pigweed plant response rating (pigweed; [3]) | Redroot pigweed plant response rating (pigweed; [6]) | Wheat plant response rating (wheat; [6])
